Measurements taken from patent publication US12215173B2, “Kappa opioid receptor peptide amide ligands” (priority 2019, dated 2025).
pEC50, pIC50: −log10 of the molar value. Where two headings read alike, the source gives them in different places.

Columns and labels:
[1] = molecular target: recombinant human mu (MOR) opioid receptor (Homo sapiens (Human), UniProt P35372); experiment: Opioid receptor radioligand binding assay, MOR
[2] = molecular target: recombinant human delta (DOR) opioid receptor (Homo sapiens (Human), UniProt P41143); experiment: Opioid receptor radioligand binding assay, DOR
[3] = molecular target: recombinant human kappa (KOR) opioid receptor (Homo sapiens (Human), UniProt P41145); experiment: biochemical; assay type: binding
[4] = molecular target: Opioid Kappa Receptor (recombinant human, HEK293 cells) (Homo sapiens (Human), UniProt P41145); experiment: cell-based
[5] = HEK293 cell membranes, 0.5 nM [3H]DAMGO, read-out: MOR, IC50
[6] = HEK293 cell membranes, 0.5 nM [3H]DADLE, read-out: DOR, IC50
[7] = HEK293 cell membranes, 0.5 nM [3H]diprenorphine

Chain of recombinant human delta (DOR) opioid receptor (P41143 whole entry, looked up): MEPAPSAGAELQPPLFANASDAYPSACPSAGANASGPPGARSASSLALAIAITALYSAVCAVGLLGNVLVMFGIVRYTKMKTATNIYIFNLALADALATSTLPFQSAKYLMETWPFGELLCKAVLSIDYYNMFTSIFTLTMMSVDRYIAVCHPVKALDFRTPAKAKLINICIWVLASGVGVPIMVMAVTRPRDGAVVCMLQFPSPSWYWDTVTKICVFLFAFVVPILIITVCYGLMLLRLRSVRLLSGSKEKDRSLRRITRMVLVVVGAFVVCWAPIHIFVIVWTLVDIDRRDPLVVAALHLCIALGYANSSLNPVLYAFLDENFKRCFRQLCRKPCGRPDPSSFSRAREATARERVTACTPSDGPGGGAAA

Structure (SMILES) | pIC50 [1, 5] | pIC50 [2, 6] | pIC50 [3, 7] | pEC50 ([4]; read-out: EC50) | pIC50 [1] | pIC50 [2] | pIC50 [3] | pEC50 [4]
CCNC(=O)C(=O)NC1CCN(C(=O)[C@@H](CCCCN)NC(=O)[C@@H](CC(C)C)NC(=O)[C@@H](Cc2ccccc2)NC(=O)[C@H](N)Cc2ccccc2)CC1 [Compound 13-35] | 5.07 | < 5.00 | 9.51 | 7.97 |  |  |  | 
CCNC(=O)C(=O)N1CCC(NC(=O)[C@@H](CCCCN)NC(=O)[C@@H](CC(C)C)NC(=O)[C@@H](Cc2ccccc2)NC(=O)[C@H](N)Cc2ccccc2)CC1 [Compound 13-36] | < 5.00 | < 5.00 | 9.31 | 7.42 |  |  |  | 
CC(C)C[C@@H](NC(=O)[C@@H](Cc1ccccc1)NC(=O)[C@H](N)Cc1ccccc1)C(=O)N[C@H](CCCCN)C(=O)N1CCC(NC(=O)C[C@H](N)C(N)=O)CC1 [Compound 13-38] |  |  | 9.52 | 8.22 | < 5.00 | < 5.00 |  | 
CCOC(=O)C(N)C(=O)NC1CCN(C(=O)[C@@H](CCCCN)NC(=O)[C@@H](CC(C)C)NC(=O)[C@@H](Cc2ccccc2)NC(=O)[C@H](N)Cc2ccccc2)CC1 (some centres unmarked) [Compound 13-39] | < 5.00 | < 5.00 | 9.64 | 7.83 |  |  |  | 
CC(C)C[C@@H](NC(=O)[C@@H](Cc1ccccc1)NC(=O)[C@H](N)Cc1ccccc1)C(=O)N[C@H](CCCCN)C(=O)N1CCC(NC(=O)C(N)C(=O)O)CC1 (some centres unmarked) [Compound 13-40] | 5.19 | < 5.00 | 9.52 | 8.13 |  |  |  | 
CC(C)C[C@@H](NC(=O)[C@@H](Cc1ccccc1)NC(=O)[C@H](N)Cc1ccccc1)C(=O)N[C@H](CCCCN)C(=O)N1CCC(NC(=O)CC[C@H](N)C(N)=O)CC1 [Compound 13-41] | 5.09 | < 5.00 | 9.68 | 8.04 |  |  |  | 
CC(C)C[C@@H](NC(=O)[C@@H](Cc1ccccc1)NC(=O)[C@H](N)Cc1ccccc1)C(=O)N[C@H](CCCCN)C(=O)N1CCC(NC(=O)[C@@H](N)CC(N)=O)CC1 [Compound 13-42] | < 5.00 | < 5.00 | 9.32 | 8.07 |  |  |  | 
CCNC(=O)C(=O)N1CCN(C(=O)[C@@H](CCCCN)NC(=O)[C@@H](CC(C)C)NC(=O)[C@@H](Cc2ccccc2)NC(=O)[C@H](N)Cc2ccccc2)CC1 [Compound 13-43] | < 5.00 | < 5.00 | 9.48 | 8.06 |  |  |  | 
CC(C)C[C@@H](NC(=O)[C@@H](Cc1ccccc1)NC(=O)[C@H](N)Cc1ccccc1)C(=O)N[C@H](CCCCN)C(=O)NCc1n[nH]c(=O)[nH]1 [Compound 13-45] |  |  | 9.37 | 8.82 | < 5.00 | < 5.00 |  | 
CCOC(=O)N1CCN(C(=O)[C@@H](CCCCN)NC(=O)[C@@H](CC(C)C)NC(=O)[C@@H](Cc2ccccc2)NC(=O)[C@H](N)Cc2ccccc2)CC1 [Compound 13-47] | < 5.00 | < 5.00 |  |  |  |  | 9.57 | 8.32
CC(C)C[C@@H](NC(=O)[C@@H](Cc1ccccc1)NC(=O)[C@H](N)Cc1ccccc1)C(=O)N[C@H](CCCCN)C(=O)N1CCN(C(=O)NC2CC2)CC1 [Compound 13-48] |  |  | 9.44 | 8.24 | < 5.00 | < 5.00 |  | 
CC(C)C[C@@H](NC(=O)[C@@H](Cc1ccccc1)NC(=O)[C@H](N)Cc1ccccc1)C(=O)N[C@H](CCCCN)C(=O)N(C)C[C@H](O)[C@@H](O)[C@H](O)[C@H](O)CO [Compound 13-50] | 5.96 | < 5.00 | 9.43 | 7.91 |  |  |  | 
CC(C)C[C@@H](NC(=O)[C@@H](Cc1ccccc1)NC(=O)[C@H](N)Cc1ccccc1)C(=O)N[C@H](CCCCN)C(=O)NCCOCCO [Compound 13-51] | 6.46 | < 5.00 | 9.57 | 8.29 |  |  |  | 
CC(C)C[C@@H](NC(=O)[C@@H](Cc1ccccc1)NC(=O)[C@H](N)Cc1ccccc1)C(=O)N[C@H](CCCCN)C(=O)NCCOCCOCCO [Compound 13-52] | < 5.00 | < 5.00 | 8.99 | 7.92 |  |  |  | 
CC(C)C[C@@H](NC(=O)[C@@H](Cc1ccccc1)NC(=O)[C@H](N)Cc1ccccc1)C(=O)N[C@H](CCCCN)C(=O)NCc1ccncc1 [Compound 13-53] |  |  | 8.70 | 7.90 | 5.06 | < 5.00 |  | 
CC(C)C[C@@H](NC(=O)[C@@H](Cc1ccccc1)NC(=O)[C@H](N)Cc1ccccc1)C(=O)N[C@H](CCCCN)C(=O)N1CCC(NC(=O)/C=C\C(=O)NC(N)=O)CC1 [Compound 13-54] |  |  | 9.68 | 7.82 | 5.82 | < 5.00 |  | 
CC(C)C[C@@H](NC(=O)[C@@H](Cc1ccccc1)NC(=O)[C@H](N)Cc1ccccc1)C(=O)N[C@H](CCCCN)C(=O)N1CCC(NC(=O)CNC(N)=O)CC1 [Compound 13-55] |  |  | 9.46 | 7.69 | < 5.00 | < 5.00 |  | 
